Like-named read-outs stand apart in the source and are kept apart here.
Legend:
Type in all cases: cell-based
all bacterial strains = experiment: MIC screening, summary for all bacterial strains
Experimental: A comparative assessment of the spectrum of antibacterial action was carried out on archival and clinical strains of gram-positive and gram-negative microorganisms in accordance with the [Opredeleniye chuvstvitel'nosti mikroorganizmov k antibakterial'nym preparatam (Metodicheskiye ukazaniya MUK 4.2.1890-04). Utverzhdeny i vvedeny v deystviye Glavnym gosudarstvennym sanitarnym vrachom Rossiyskoy Federatsii G. G. Onishchenko 04.03.2004 g. Determination of the sensitivity of microorganisms to antibacterial drugs (Guidelines MUK 4.2.1890-04). Approved and put into effect by the Chief State Sanitary Doctor of the Russian Federation G. G. Onishchenko on 4 Mar. 2004].
The value of the minimum inhibitory concentration (MIC) was determined by the method of serial dilutions on Müller-Hinton broth using 96-well sterile plates. […] The growth of cultures was assessed visually, comparing the growth of microorganisms in the presence of test compounds with the growth of culture without them. […] The first lowest concentration of the studied substance (from a series of consecutive dilutions), where bacterial growth is not visually determined, is considered to be the minimum inhibitory concentration (MIC). MIC was determined by the method of serial dilutions in broth with increment=2, so the differences of neighboring dilutions are not considered to be significant. […]

[1] = system: Escherichia coli CDC F-50; experiment: Disinfectant activity in suspension test
Experimental: (§1) To prepare a bacterial suspension of the culture, microorganisms grown in dense nutrient medium for (18-24) hours were washed off with a sterile isotonic sodium chloride solution. The bacterial suspension of each microorganism was brought to a turbidity corresponding to a concentration of 1×10^9 cells/ml, which corresponds to 3 units of McFarland. For experiments with protein loading, a solution of bovine serum albumin (BSA) was added to the bacterial suspension to a final concentration of 0.2%.
(§2) Solutions of compound I, miramistin, and benzalkonium chloride were poured at a working concentration (0.1%, 0.2%) into a 24-well plate of 0.9 ml per well: 0.1 ml of microbial suspension was added to wells with disinfectant solutions and mixed by shaking for several seconds.
(§3) At the end of 1, 5, and 15 minutes of exposure, 0.5 ml of a universal neutralizer was added and mixed by shaking to deactivate the drugs and stop their antimicrobial activity. The neutralizer consisted of tween-80 (Sigma-Aldrich)—3.0 ml, saponin (DIAEM)—3.0 g, histidine—0.1 g, cysteine—0.1 g in 100 ml of phosphate-buffered solution.
(§4) The liquid was inoculated on a dense nutrient medium (Müller-Hinton agar) in 0.1 ml of the mixture, cultivation was carried out (24-48) hours at 37° C. Müller-Hinton broth was prepared from dry media (Mueller Hinton broth, Acumedia, Baltimore), cultivation was carried out on agarized Müller-Hinton broth, which included an additional 2% of agar. The media were autoclaved at 121° C. for 15 minutes.
(§5) After the time required for the cultivation of microorganisms, the results were counted according to the number of colonies grown on the Petri dish. In the absence of growth, the time for culturing microorganisms was increased by a factor of 2 (for example, when the cultivation time was 24 hours, it was left in the thermostat for up to 2 days). The experiment was carried out three times under the same conditions.
(§6) The criterion of efficacy of drugs in suspension is the death of 100% test microorganisms, with a duration of action not more than 30 minutes.

[2] = system: Staphylococcus aureus ATCC 209p; experiment: Disinfectant activity in suspension test
Experimental: as §1, §2, §3, §4, §5, §6

[3] = 0.1% solution, exposure 1 min, +BSA
[4] = 0.1% solution, exposure 1 min, −BSA
[5] = 0.1% solution, exposure 5 min, +BSA
[6] = 0.1% solution, exposure 5 min, −BSA
[7] = 0.1% solution, exposure 15 min, +BSA
[8] = 0.1% solution, exposure 15 min, −BSA
[9] = 0.2% solution, exposure 1 min, +BSA
[10] = 0.2% solution, exposure 1 min, −BSA
[11] = 0.2% solution, exposure 5 min, +BSA
[12] = 0.2% solution, exposure 5 min, −BSA
[13] = 0.2% solution, exposure 15 min, +BSA
[14] = 0.2% solution, exposure 15 min, −BSA

In the case of `CCCCCCCCCCCCCC(=O)NCCC[N+](C)(C)Cc1ccccc1.O.[Cl-]` [Miramistin, benzyldimethyl [3-(myristoylamino)propyl]-ammonium chloride monohydrate], the MIC (all bacterial strains; all bacterial strains, read-out: MIC89) is reported as < 64 µg/mL, the “Inhibition rate (M ± SD) of Escherichia coli CDC F-50 growth” value [1, 3] is reported as 99.98 ± 0.005% and the “Inhibition rate (M ± SD) of Escherichia coli CDC F-50 growth” value [1, 4] is reported as 99.99%. The “Inhibition rate (M ± SD) of Escherichia coli CDC F-50 growth” value [1, 5] was 99.99%, the “Inhibition rate (M ± SD) of Escherichia coli CDC F-50 growth” value [1, 6] was 99.99 ± 0.005% and the “Inhibition rate (M ± SD) of Escherichia coli CDC F-50 growth” value [1, 7] was 99.99 ± 0.005%. The “Inhibition rate (M ± SD) of Escherichia coli CDC F-50 growth” value [1, 8] was 100%, the “Inhibition rate (M ± SD) of Escherichia coli CDC F-50 growth” value [1, 9] was 99.99% and the “Inhibition rate (M ± SD) of Escherichia coli CDC F-50 growth” value [1, 10] was 99.99%. For the same compound, the “Inhibition rate (M ± SD) of Escherichia coli CDC F-50 growth” value [1, 11] was 99.99%, the “Inhibition rate (M ± SD) of Escherichia coli CDC F-50 growth” value [1, 12] was 99.99 ± 0.005% and the “Inhibition rate (M ± SD) of Escherichia coli CDC F-50 growth” value [1, 13] was 100%. For the same compound, the “Inhibition rate (M ± SD) of Escherichia coli CDC F-50 growth” value [1, 14] was 100%, the “Inhibition rate (M ± SD) Staphylococcus aureus ATCC 209p” value [2, 3] was 99.99% and the “Inhibition rate (M ± SD) Staphylococcus aureus ATCC 209p” value [2, 4] was 99.9%. The “Inhibition rate (M ± SD) Staphylococcus aureus ATCC 209p” value [2, 5] was 99.99%, the “Inhibition rate (M ± SD) Staphylococcus aureus ATCC 209p” value [2, 6] was 99.99% and the “Inhibition rate (M ± SD) Staphylococcus aureus ATCC 209p” value [2, 7] was 99.99 ± 0.005%. For the same compound, the “Inhibition rate (M ± SD) Staphylococcus aureus ATCC 209p” value [2, 8] was 99.99%, the “Inhibition rate (M ± SD) Staphylococcus aureus ATCC 209p” value [2, 9] was 99.99% and the “Inhibition rate (M ± SD) Staphylococcus aureus ATCC 209p” value [2, 10] was 99.9%. The “Inhibition rate (M ± SD) Staphylococcus aureus ATCC 209p” value [2, 11] was 99.99 ± 0.005%, the “Inhibition rate (M ± SD) Staphylococcus aureus ATCC 209p” value [2, 12] was 99.99% and the “Inhibition rate (M ± SD) Staphylococcus aureus ATCC 209p” value ([2]; 0.2% solution, exposure 15 min, +BSA, listed as miramistin, monohydrate) was < 100%. The “Inhibition rate (M ± SD) Staphylococcus aureus ATCC 209p” value ([2]; 0.2% solution, exposure 15 min, +BSA, monohydrate) was 99.99 ± 0.005% and the “Inhibition rate (M ± SD) Staphylococcus aureus ATCC 209p” value [2, 14] was 100%.
For `CCCCCCCCCCCC[N+](C)(C)Cc1cnc(C[N+](C)(C)CCCCCCCCCCCC)c2c1COC(CC)O2` (stereo not shown) [Compound I, 5,8-(Bis(methylene (N, N-dimethyl-N-dodecylammonium))-2-ethyl-4H-[1,3]dioxino [4,5-c]pyridiniumdichloride], the MIC (all bacterial strains; read-out: MIC100) was < 64 µg/mL, the “Inhibition rate (M ± SD) of Escherichia coli CDC F-50 growth” value [1, 3] was 99.99 ± 0.005% and the “Inhibition rate (M ± SD) of Escherichia coli CDC F-50 growth” value [1, 4] was 99.99%. For the same compound, the “Inhibition rate (M ± SD) of Escherichia coli CDC F-50 growth” value [1, 5] was 99.99 ± 0.005%, the “Inhibition rate (M ± SD) of Escherichia coli CDC F-50 growth” value [1, 6] was 99.99 ± 0.005% and the “Inhibition rate (M ± SD) of Escherichia coli CDC F-50 growth” value [1, 7] was 100%. The “Inhibition rate (M ± SD) of Escherichia coli CDC F-50 growth” value [1, 8] was 100%, the “Inhibition rate (M ± SD) of Escherichia coli CDC F-50 growth” value [1, 9] was 99.99 ± 0.005% and the “Inhibition rate (M ± SD) of Escherichia coli CDC F-50 growth” value [1, 10] was 99.99%. For the same compound, the “Inhibition rate (M ± SD) of Escherichia coli CDC F-50 growth” value [1, 11] was 99.99%, the “Inhibition rate (M ± SD) of Escherichia coli CDC F-50 growth” value [1, 12] was 99.99% and the “Inhibition rate (M ± SD) of Escherichia coli CDC F-50 growth” value [1, 13] was 100%. For the same compound, the “Inhibition rate (M ± SD) of Escherichia coli CDC F-50 growth” value [1, 14] was 100%, the “death of Staphylococcus aureus ATCC 209p” value ([2]; 0.1% solution) was 99.99% and the “Inhibition rate (M ± SD) Staphylococcus aureus ATCC 209p” value [2, 3] was 99.99%. The “Inhibition rate (M ± SD) Staphylococcus aureus ATCC 209p” value [2, 4] was 99.99%, the “Inhibition rate (M ± SD) Staphylococcus aureus ATCC 209p” value [2, 5] was 99.99% and the “Inhibition rate (M ± SD) Staphylococcus aureus ATCC 209p” value [2, 6] was 99.99%. The “Inhibition rate (M ± SD) Staphylococcus aureus ATCC 209p” value [2, 7] was 99.99 ± 0.005%, the “Inhibition rate (M ± SD) Staphylococcus aureus ATCC 209p” value [2, 8] was 99.99 ± 0.005% and the “Inhibition rate (M ± SD) Staphylococcus aureus ATCC 209p” value [2, 9] was 99.99 ± 0.005%. The “Inhibition rate (M ± SD) Staphylococcus aureus ATCC 209p” value [2, 10] was 100%, the “Inhibition rate (M ± SD) Staphylococcus aureus ATCC 209p” value [2, 11] was 99.99 ± 0.005% and the “Inhibition rate (M ± SD) Staphylococcus aureus ATCC 209p” value [2, 12] was 100%. The “Inhibition rate (M ± SD) Staphylococcus aureus ATCC 209p” value [2, 13] was 100% and the “Inhibition rate (M ± SD) Staphylococcus aureus ATCC 209p” value [2, 14] was 100%.
“alkyldimethyl(phenylmethyl) ammonium chloride [Benzalconium chloride]” was tested, and the “Inhibition rate (M ± SD) of Escherichia coli CDC F-50 growth” value [1, 3] was 99.99 ± 0.005%, the “Inhibition rate (M ± SD) of Escherichia coli CDC F-50 growth” value [1, 4] was 99.99% and the “Inhibition rate (M ± SD) of Escherichia coli CDC F-50 growth” value [1, 5] was 99.99 ± 0.005%. The “Inhibition rate (M ± SD) of Escherichia coli CDC F-50 growth” value [1, 6] was 99.99 ± 0.005%, the “Inhibition rate (M ± SD) of Escherichia coli CDC F-50 growth” value [1, 7] was 100% and the “Inhibition rate (M ± SD) of Escherichia coli CDC F-50 growth” value [1, 8] was 100%. For the same compound, the “Inhibition rate (M ± SD) of Escherichia coli CDC F-50 growth” value [1, 9] was 99.99 ± 0.005%, the “Inhibition rate (M ± SD) of Escherichia coli CDC F-50 growth” value [1, 10] was 99.99 ± 0.005% and the “Inhibition rate (M ± SD) of Escherichia coli CDC F-50 growth” value [1, 11] was 100%. For the same compound, the “Inhibition rate (M ± SD) of Escherichia coli CDC F-50 growth” value [1, 12] was 99.99 ± 0.005%, the “Inhibition rate (M ± SD) of Escherichia coli CDC F-50 growth” value [1, 13] was 100% and the “Inhibition rate (M ± SD) of Escherichia coli CDC F-50 growth” value [1, 14] was 100%. The “Inhibition rate (M ± SD) Staphylococcus aureus ATCC 209p” value [2, 3] was 99.99%, the “Inhibition rate (M ± SD) Staphylococcus aureus ATCC 209p” value [2, 4] was 99.99% and the “Inhibition rate (M ± SD) Staphylococcus aureus ATCC 209p” value [2, 5] was 99.99%. For the same compound, the “Inhibition rate (M ± SD) Staphylococcus aureus ATCC 209p” value [2, 6] was 99.99%, the “Inhibition rate (M ± SD) Staphylococcus aureus ATCC 209p” value [2, 7] was 99.99 ± 0.005% and the “Inhibition rate (M ± SD) Staphylococcus aureus ATCC 209p” value [2, 8] was 99.99 ± 0.005%. The “Inhibition rate (M ± SD) Staphylococcus aureus ATCC 209p” value [2, 9] was 100%, the “Inhibition rate (M ± SD) Staphylococcus aureus ATCC 209p” value [2, 10] was 100% and the “Inhibition rate (M ± SD) Staphylococcus aureus ATCC 209p” value [2, 11] was 100%. The “Inhibition rate (M ± SD) Staphylococcus aureus ATCC 209p” value [2, 12] was 100%, the “Inhibition rate (M ± SD) Staphylococcus aureus ATCC 209p” value [2, 13] was 100% and the “Inhibition rate (M ± SD) Staphylococcus aureus ATCC 209p” value [2, 14] was 100%.

— patent publication US11014934B2, “Antiseptic drug” (AO “TATKHIMFARMPREPARATY”, priority 2017, dated 2021)
